Assay [1] relates to Human immunodeficiency virus 1. Briefly: Antiviral activity against BMS-378806-resistant Human immunodeficiency virus 1 DH012 T/P. It counts as functional, organism-based.
Assay [2] deals with Human immunodeficiency virus 1. The experiment in a line: Antiviral activity against Human immunodeficiency virus 1 Clade C Du123.6 infected in human TZM-bl cells after 2 days by luciferase reporter gene analysis. The settings on record: Human immunodeficiency virus 1, Clade C Du123.6, TZM-bl, 48 h. It counts as functional, organism-based.
Assay [3] concerns Human immunodeficiency virus 1. Briefly: Competitive inhibition of Human immunodeficiency virus 1 3B gp120 glycan loop assessed as blockade of 2G12 antibody binding by ELISA.
Assay [4] has as its system Human immunodeficiency virus 1. Briefly: Antiviral activity against Human immunodeficiency virus 1 Clade B NL4.3 infected in human TZM-bl cells after 2 days by luciferase reporter gene analysis. The assay is classed as functional, organism-based. The settings on record: Human immunodeficiency virus 1, Clade B NL4.3, TZM-bl, 48 h.
Assay [5] deals with Human immunodeficiency virus 1. The experiment in a line: Competitive inhibition of Human immunodeficiency virus 1 3B gp120 V3 loop assessed as blockade of 447-52D antibody binding by ELISA.
In assay [6] the test system is Human immunodeficiency virus 1. The experiment in a line: Antiviral activity against Human immunodeficiency virus 1 Clade C Du422.1 infected in human TZM-bl cells after 2 days by luciferase reporter gene analysis. The assay is classed as functional, organism-based. Conditions: Human immunodeficiency virus 1, Clade C Du422.1, TZM-bl, 48 h.
The test system of assay [7] is Human immunodeficiency virus 1. Briefly: Antiviral activity against Human immunodeficiency virus 1 3B infected in human TZM-bl cells assessed as inhibition of viral replication at 0.33 uM by luminometric analysis. It counts as functional, organism-based. The settings on record: TDE = time-dependent effect.
In a further assay the test system is COS. The experiment in a line: (§1) Inhibition of Human immunodeficiency virus 1 3B gp120 expressed in african green monkey COS cells assessed as inhibition of […] between gp120 and CD4 expressed on human TZM-bl cells by ELISA. The assay is classed as cell-based.
Assay [8] has as its system Human immunodeficiency virus 1. Briefly: Antiviral activity against Human immunodeficiency virus 1 3B infected in human TZM-bl cells assessed as inhibition of viral replication at 1 uM by luminometric analysis. The assay is classed as functional, organism-based. The settings on record: TDE = time-dependent effect.
For assay [9], the system named is Human immunodeficiency virus 1. The experiment in a line: Antiviral activity against Human immunodeficiency virus 1 Clade B RHPA4259.7 infected in human TZM-bl cells after 2 days by luciferase reporter gene analysis. The assay is classed as functional, organism-based. The settings on record: Human immunodeficiency virus 1, Clade B RHPA4259.7, TZM-bl, 48 h.
In assay [10] the test system is Human immunodeficiency virus 1. The experiment in a line: Antiviral activity against Human immunodeficiency virus 1 Clade B REJO4541.67 infected in human TZM-bl cells after 2 days by luciferase reporter gene analysis. The settings on record: Human immunodeficiency virus 1, Clade B REJO4541.67, TZM-bl, 48 h. It counts as functional, organism-based.
For assay [11], the system named is Human immunodeficiency virus 1. Briefly: Competitive inhibition of Human immunodeficiency virus 1 3B gp120 V3 loop assessed as blockade of PK70 antibody binding by ELISA.
For assay [12], the system named is Human immunodeficiency virus 1. Briefly: Antiviral activity against Human immunodeficiency virus 1 Clade B SS1196.1 infected in human TZM-bl cells after 2 days by luciferase reporter gene analysis. It counts as functional, organism-based. The settings on record: Human immunodeficiency virus 1, Clade B SS1196.1, TZM-bl, 48 h.
Assay [13] concerns Human immunodeficiency virus 1. Briefly: Antiviral activity against Human immunodeficiency virus 1 Clade C Du151.2 infected in human TZM-bl cells after 2 days by luciferase reporter gene analysis. The settings on record: Human immunodeficiency virus 1, Clade C Du151.2, TZM-bl, 48 h. It counts as functional, organism-based.
The test system of assay [14] is Human immunodeficiency virus 1. Briefly: Antiviral activity against Human immunodeficiency virus 1 Clade B 7165.18 infected in human TZM-bl cells after 2 days by luciferase reporter gene analysis. It counts as functional, organism-based. Conditions: Human immunodeficiency virus 1, Clade B 7165.18, TZM-bl, 48 h.
The subject of assay [15] is Human immunodeficiency virus 1. Briefly: Antiviral activity against Human immunodeficiency virus 1 Clade B 5768.4 infected in human TZM-bl cells after 2 days by luciferase reporter gene analysis. It counts as functional, organism-based. Conditions: Human immunodeficiency virus 1, Clade B 5768.4, TZM-bl, 48 h.
Assay [16] has as its system Human immunodeficiency virus 1. Briefly: Competitive inhibition of Human immunodeficiency virus 1 3B gp120 V3 loop assessed as blockade of 39F antibody binding by ELISA.
Assay [17] deals with Human immunodeficiency virus 1. The experiment in a line: Antiviral activity against Human immunodeficiency virus 1 Clade C ZM197M.PB7 infected in human TZM-bl cells after 2 days by luciferase reporter gene analysis. The assay is classed as functional, organism-based. Conditions: Human immunodeficiency virus 1, Clade C ZM197M.PB7, TZM-bl, 48 h.
Assay [18] concerns Human immunodeficiency virus 1. The experiment in a line: Antiviral activity against Human immunodeficiency virus 1 Clade C ZM109F.PB4 infected in human TZM-bl cells after 2 days by luciferase reporter gene analysis. The assay is classed as functional, organism-based. The settings on record: Human immunodeficiency virus 1, Clade C ZM109F.PB4, TZM-bl, 48 h.
Assay [19] has as its system Human immunodeficiency virus 1. The experiment in a line: Antiviral activity against Human immunodeficiency virus 1 DH012. The assay is classed as functional, organism-based.
Assay [20] deals with Human immunodeficiency virus 1. Briefly: Antiviral activity against Human immunodeficiency virus 1 YU-2. The assay is classed as functional. Conditions: isolate YU2.
Assay [21] relates to Human immunodeficiency virus 1. Briefly: Antiviral activity against Human immunodeficiency virus 1 Clade B WITO4160.33 infected in human TZM-bl cells after 2 days by luciferase reporter gene analysis. The assay is classed as functional, organism-based. Conditions: Human immunodeficiency virus 1, Clade B WITO4160.33, TZM-bl, 48 h.
Assay [22] relates to Human immunodeficiency virus 1. The experiment in a line: Antiviral activity against BMS-378806-resistant Human immunodeficiency virus 1 YU-2 T/P. The assay is classed as functional. The settings on record: Human immunodeficiency virus type 1 (isolate YU2).
Assay [23] can be described thus: as §1. It counts as cell-based.

Activity calls are given as the source filed them. No cut-off for these calls is given here. Bounds are passed on as bounds.

With `CCCCOc1c2cc(C(=O)Nc3cc(C(=O)O)cc(C(=O)O)c3)cc1Cc1cc(C(=O)Nc3cc(C(=O)O)cc(C(=O)O)c3)cc(c1OCCCC)Cc1cc(C(=O)Nc3cc(C(=O)O)cc(C(=O)O)c3)cc(c1OCCCC)Cc1cc(C(=O)Nc3cc(C(=O)O)cc(C(=O)O)c3)cc(c1OCCCC)C2`, the result in [1], in [19], in [20] and in [22] was Active. The IC50 in assay [2] was 1.4 µM; in assay [4] it was 0.65 µM; in assay [6] it was 1.8 µM; in assay [9] it was 3.1 µM; in [10] it was 1.9 µM; in assay [12], 2.8 µM. Moreover, the IC50 in [13] was 3.1 µM; in [14] it was 4.5 µM; in assay [15] it was 4.1 µM; in assay [17], 2.7 µM; in [18], 3.9 µM; in assay [21], 1.8 µM. In addition, in assay [3], the inhibition entry is “inactive”. Also, the inhibition entry (in assay [5]; in the assay on COS) was “Dose-dependent effect” each time. For the same compound, the Activity result in assay [7] and in [8] was “tde” throughout. For the same compound, the inhibition entry in assay [11] and in assay [16] was “Active” throughout.
With `CCCCOc1c2cc(C(=O)Nc3cc(C(=O)O)cc(C(=O)OCc4ccccc4)c3)cc1Cc1cc(C(=O)Nc3cc(C(=O)O)cc(C(=O)OCc4ccccc4)c3)cc(c1OCCCC)Cc1cc(C(=O)Nc3cc(C(=O)O)cc(C(=O)OCc4ccccc4)c3)cc(c1OCCCC)Cc1cc(C(=O)Nc3cc(C(=O)O)cc(C(=O)OCc4ccccc4)c3)cc(c1OCCCC)C2`, in assay [5], the inhibition entry is “inactive”. Also, in assay [23], the EC50 is over 70 µM.

These data come from ChEMBL document CHEMBL2021873, “Blocking HIV-1 entry by a gp120 surface binding inhibitor” (Bioorg Med Chem Lett, 2012).
